PMC8291497 (ACS Chemical Biology, 2021)
Where a SMILES comes first, the peptide text is derived from it. Where no end group is shown, it is not given here. [ ]: non-standard residue; d: D form. The star is where a group is joined. Dansyl = CN(C)c1cccc2c(S(=O)(=O)*)cccc12; PhLac = O=C(O)[C@@H](O)Cc1ccccc1

What was measured:
[1] = molecular target: T1, Mint2 PARM 364-570 (Y524W), pWT PARM (PTB domain and ARM linker) (Homo sapiens, UniProt Q99767, Y524W); experiment: Stopped flow binding kinetics, APP peptides to PARM (pseudo-wild type)
T1 construct: made in house; host or cells: Escherichia coli BL21(DE3)pLysS
T1 sequence (Q99767 364-570 Y524W): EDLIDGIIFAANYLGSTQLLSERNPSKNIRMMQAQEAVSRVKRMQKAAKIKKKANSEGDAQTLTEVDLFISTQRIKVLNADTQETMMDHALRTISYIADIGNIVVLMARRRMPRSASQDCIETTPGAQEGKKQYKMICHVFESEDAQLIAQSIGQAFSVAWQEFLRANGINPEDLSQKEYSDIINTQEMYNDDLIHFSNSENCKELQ
Protocol: (§1) Kinetic binding rate constants were obtained using an upgraded SX17 stopped flow spectrometer (Applied Photophysics), and all experiments were conducted at 25 °C in 500 mM NaCl and 25 mM HEPES (pH 7.4). The relatively high NaCl concentration was used to improve the solubility of the proteins. The change in tryptophan fluorescence was measured using a band-pass filter (excitation at 280 nm and emission at 330 ± 30 nm) when mixing varying concentrations (2–50 μM) of the dansyl peptides with 1 μM protein or 0.5 μM semisynthetic proteins. […] For PTB variants, we used the kobs value from the fast kinetic phase for the analysis. […] We report the errors in kon and koff from the curve fitting. […] For these koff determinations, we report the standard error of the mean of three replicates. Φ values were defined as ΔΔGTS/ΔΔGeq, where ΔΔGTS = RT ln(kon^WT/kon^mut.) and ΔΔGeq = RT ln(Kd^mut./Keq^WT). Calculated coupling free energies were defined as ΔΔΔGEq = RT ln(Kd^mut.:WTKd^WT:mut./Kd^WT:WTKd^mut.:mut.) or ΔΔΔGTS = RT ln(kon^WT:WTkon^mut.:mut./kon^mut.:WTkon^WT:mut.) as previously described.[27] Propagated errors are reported.

[2] = molecular target: T2, Mint2 PTB 364-538 (without the ARM linker) (Homo sapiens, UniProt Q99767, Y524W); experiment: Stopped flow binding kinetics, APP peptides to PTB
T2 construct: made in house; host or cells: Escherichia coli BL21(DE3)pLysS
T2 sequence (Q99767 364-538 Y524W): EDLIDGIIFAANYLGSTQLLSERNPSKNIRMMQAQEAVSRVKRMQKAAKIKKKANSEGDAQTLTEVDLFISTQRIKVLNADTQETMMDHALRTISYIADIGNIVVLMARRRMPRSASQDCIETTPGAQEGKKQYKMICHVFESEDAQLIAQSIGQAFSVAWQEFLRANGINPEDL
Protocol: as §1

[3] = molecular target: Mint2 PARMWT 364-570 (Homo sapiens, UniProt Q99767); experiment: biochemical
[4] = molecular target: T3, Mint2 PARM 364-570 (Y524W, Y543A) (Homo sapiens, UniProt Q99767, Y524W/Y543A); experiment: biochemical
T3 sequence (Q99767 364-570 Y524W/Y543A): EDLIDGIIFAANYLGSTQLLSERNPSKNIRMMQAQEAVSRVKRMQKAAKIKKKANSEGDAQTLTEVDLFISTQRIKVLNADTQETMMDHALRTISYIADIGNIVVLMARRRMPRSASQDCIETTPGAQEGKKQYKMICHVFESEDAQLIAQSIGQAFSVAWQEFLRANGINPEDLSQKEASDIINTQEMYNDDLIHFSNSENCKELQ

[5] = molecular target: T4, Mint2 PARM 364-570 (Y524W, Y543E) (Homo sapiens, UniProt Q99767, Y524W/Y543E); experiment: biochemical
T4 sequence (Q99767 364-570 Y524W/Y543E): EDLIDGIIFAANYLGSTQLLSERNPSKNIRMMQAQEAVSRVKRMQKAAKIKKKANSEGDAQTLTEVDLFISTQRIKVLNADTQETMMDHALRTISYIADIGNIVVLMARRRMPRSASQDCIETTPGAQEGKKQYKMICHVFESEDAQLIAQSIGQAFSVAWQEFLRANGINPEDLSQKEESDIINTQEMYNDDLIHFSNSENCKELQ

[6] = molecular target: Mint2 PTB 364-538 (Homo sapiens, UniProt Q99767, Y524W); experiment: biochemical
[7] = molecular target: T3, Mint2 PARM 364-570 (Y524W, Y543A); experiment: Stopped flow binding kinetics, APP peptides to PARM^Y543A; parameters: made in house; host or cells: Escherichia coli BL21(DE3)pLysS
Protocol: as §1

[8] = molecular target: T5, PARM-pWT (364-570; R455K, C483A, C501A, Y524W, C566A) (Homo sapiens, UniProt Q99767, C483A/C501A/C566A/R455K/Y524W); experiment: Stopped flow binding kinetics, APP A-to-E variants to PARM-pWT
T5 construct: made in house; host or cells: semisynthesis, three-segment approach (expressed fragments plus synthetic segment)
T5 sequence (Q99767 364-570 R455K/C483A/C501A/Y524W/C566A): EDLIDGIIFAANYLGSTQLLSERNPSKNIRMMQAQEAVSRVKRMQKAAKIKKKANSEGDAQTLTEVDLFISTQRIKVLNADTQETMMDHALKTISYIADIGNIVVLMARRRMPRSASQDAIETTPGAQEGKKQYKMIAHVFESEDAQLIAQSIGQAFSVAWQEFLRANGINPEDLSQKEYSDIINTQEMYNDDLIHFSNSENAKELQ
Protocol: as §1

[9] = molecular target: Mint2 PARM 364-570 (Y524W) (Homo sapiens, UniProt Q99767, Y524W); experiment: biochemical
[10] = molecular target: pseudo-wild type (pWT) PARM domain of Mint2 (residues 364-570, Y524W) (human, UniProt Q99767 364-570, Y524W); experiment: stopped-flow fluorescence kinetics; conditions: both partners purified
[11] = molecular target: PARM^WT (Mint2 residues 364-570) (human, UniProt Q99767 364-570); experiment: stopped-flow fluorescence kinetics; conditions: both partners purified
[12] = molecular target: PARM^Y543A (human, UniProt Q99767 364-570, Y524W | Y543A); experiment: stopped-flow fluorescence kinetics; conditions: both partners purified
[13] = molecular target: PARM^Y543E (human, UniProt Q99767 364-570, Y524W | Y543E); experiment: stopped-flow fluorescence kinetics; conditions: both partners purified
[14] = molecular target: PTB without the ARM linker (Mint2 residues 364-538) (human, UniProt Q99767 364-538, Y524W); experiment: stopped-flow fluorescence kinetics; conditions: both partners purified

C[C@@H](O)[C@H](NC(=O)[C@@H]1CCCN1C(=O)[C@H](CC(N)=O)NC(=O)[C@H](CCC(=O)O)NC(=O)[C@H](Cc1ccc(O)cc1)NC(=O)CNC(=O)[C@H](CC(N)=O)NC(=O)CNC(=O)[C@H](CC(N)=O)NC(=O)[C@H](CC(N)=O)NS(=O)(=O)c1cccc2c(N(C)C)cccc12)C(=O)N[C@@H](Cc1ccc(O)cc1)C(=O)N[C@@H](CCCCN)C(=O)N[C@@H](Cc1ccccc1)C(=O)N[C@@H](Cc1cccc2ccccc12)C(=O)N[C@@H](CCC(=O)O)C(=O)O [Peptide F765Nal1]
Kd [1]: 1500 nM
Kd [2]: 120 nM
Ki [3]: 2600 nM
Ki [4]: 1000 nM
Ki [5]: 1100 nM
Ki [6]: 560 nM
Kd [7]: 500 nM

C[C@@H](O)[C@H](NC(=O)[C@@H]1CCCN1C(=O)[C@H](CC(N)=O)NC(=O)[C@H](CCC(=O)O)NC(=O)[C@H](Cc1ccc(O)cc1)NC(=O)CNC(=O)[C@H](CC(N)=O)NC(=O)CNC(=O)[C@H](CC(N)=O)NC(=O)[C@H](CC(N)=O)NS(=O)(=O)c1cccc2c(N(C)C)cccc12)C(=O)N[C@@H](Cc1ccc(O)cc1)C(=O)N[C@@H](CCCCN)C(=O)N[C@@H](Cc1ccccc1)C(=O)O[C@@H](Cc1ccccc1)C(=O)N[C@@H](CCC(=O)O)C(=O)O [Peptide F765φ] (Dansyl-NNGNGYENPTYKF[PhLac]E-OH; N-terminus and C-terminus assumed)
Kd [8]: 40000 ± 9000 nM
koff [8]: 27 s⁻¹
F (Φ value, ΔΔGTS/ΔΔGeq) ([8]; APP A-to-E variant vs Dansyl-APPWT): ~0
kon ([8]; pH 7.4): 690000 M⁻¹ s⁻¹

C[C@H](NC(=O)[C@H](Cc1ccc(O)cc1)NC(=O)[C@@H](NC(=O)[C@@H]1CCCN1C(=O)[C@H](CC(N)=O)NC(=O)[C@H](CCC(=O)O)NC(=O)[C@H](Cc1ccc(O)cc1)NC(=O)CNC(=O)[C@H](CC(N)=O)NC(=O)CNC(=O)[C@H](CC(N)=O)NC(=O)[C@H](CC(N)=O)NS(=O)(=O)c1cccc2c(N(C)C)cccc12)[C@@H](C)O)C(=O)N[C@@H](Cc1ccccc1)C(=O)N[C@@H](Cc1ccccc1)C(=O)N[C@@H](CCC(=O)O)C(=O)O [Peptide K763A]
Ki [6]: 800 nM

C[C@@H](O)[C@H](NC(=O)[C@@H]1CCCN1C(=O)[C@H](CC(N)=O)NC(=O)[C@H](CCC(=O)O)NC(=O)[C@H](Cc1ccc(O)cc1)NC(=O)CNC(=O)[C@H](CC(N)=O)NC(=O)CNC(=O)[C@H](CC(N)=O)NC(=O)[C@H](CC(N)=O)NS(=O)(=O)c1cccc2c(N(C)C)cccc12)C(=O)N[C@@H](Cc1ccc(O)cc1)C(=O)NCC(=O)N[C@@H](Cc1ccccc1)C(=O)N[C@@H](Cc1ccccc1)C(=O)N[C@@H](CCC(=O)O)C(=O)O [Peptide K763G]
Kd [7]: 10000 ± 300 nM

C[C@H](NC(=O)[C@H](CC(N)=O)NC(=O)[C@H](CCC(=O)O)NC(=O)[C@H](Cc1ccc(O)cc1)NC(=O)CNC(=O)[C@H](CC(N)=O)NC(=O)CNC(=O)[C@H](CC(N)=O)NC(=O)[C@H](CC(N)=O)NS(=O)(=O)c1cccc2c(N(C)C)cccc12)C(=O)N[C@H](C(=O)N[C@@H](Cc1ccc(O)cc1)C(=O)N[C@@H](CCCCN)C(=O)N[C@@H](Cc1ccccc1)C(=O)N[C@@H](Cc1ccccc1)C(=O)N[C@@H](CCC(=O)O)C(=O)O)[C@@H](C)O [Peptide P760A]
Ki [9]: 40000 ± 800 nM

C[C@@H](O)[C@H](NC(=O)[C@@H]1CCCN1C(=O)[C@H](CC(N)=O)NC(=O)[C@H](CCC(=O)O)NC(=O)[C@H](Cc1ccccc1)NC(=O)CNC(=O)[C@H](CC(N)=O)NC(=O)CNC(=O)[C@H](CC(N)=O)NC(=O)[C@H](CC(N)=O)NS(=O)(=O)c1cccc2c(N(C)C)cccc12)C(=O)N[C@@H](Cc1ccc(O)cc1)C(=O)N[C@@H](CCCCN)C(=O)N[C@@H](Cc1ccccc1)C(=O)N[C@@H](Cc1ccccc1)C(=O)N[C@@H](CCC(=O)O)C(=O)O [Peptide Y757F]
Kd [2]: 600 nM

C[C@@H](O)[C@H](NC(=O)[C@@H]1CCCN1C(=O)[C@H](CC(N)=O)NC(=O)[C@H](CCC(=O)O)NC(=O)[C@H](Cc1ccc(O)cc1)NC(=O)CNC(=O)[C@H](CC(N)=O)NC(=O)CNC(=O)[C@H](CC(N)=O)NC(=O)[C@H](CC(N)=O)NS(=O)(=O)c1cccc2c(N(C)C)cccc12)C(=O)N[C@@H](Cc1ccccc1)C(=O)N[C@@H](CCCCN)C(=O)N[C@@H](Cc1ccccc1)C(=O)N[C@@H](Cc1ccccc1)C(=O)N[C@@H](CCC(=O)O)C(=O)O [Peptide Y762F]
Kd [1]: 4000 nM

Dansyl-NNG-NGψENPTYKFFE [Peptide Y757ψ, dansyl-APP peptide with amide-to-ester backbone modification at Y757]
kinetic transient in the stopped flow experiment ([8]; most likely due to a kobs outside the range of the instrument (>300 s^–1)): did not give a kinetic transient

NGYENPTYKFFE [APPWT (12-mer)]
Ki [3]: 3200 nM
Ki [4]: 1100 nM
Ki [5]: 1100 nM

B1: dansyl-APP^WT (peptide)
peptide: Dansyl-NGYENPTYKFFE
koff [10]: 2.3 ± 0.08 s⁻¹
kon [10]: 390000 ± 4000 M⁻¹ s⁻¹
koff [11]: 1.2 ± 0.05 s⁻¹
kon [11]: 380000 ± 3000 M⁻¹ s⁻¹
fold increase in kon against PARM [12]: 2.5 fold
koff [12]: ~2 s⁻¹
fold increase in kon against PARM [13]: 2.5 fold
koff [13]: ~2 s⁻¹
koff [14]: ~2 s⁻¹
kon [14]: 1.1e+07 M⁻¹ s⁻¹
ratio of Kd values for PARM and PTB [14]: 0.057
